Measured values as given in patent US9670157B2, “Benzylamine derivatives” (KALVISTA PHARMACEUTICALS LIMITED, priority 2013, dated 2017).

Columns and labels:
Human KLK1 = Human KLK1 (Homo sapiens (Human), UniProt P06870); test: Determination of the IC50 for KLK1; format: biochemical; conditions: 37° C., fluorogenic substrate H-DVal-Leu-Arg-AFC
Description: KLK1 inhibitory activity in vitro was determined using standard published methods (see e.g. Johansen et al., Int. J. Tiss. Reac. 1986, 8, 185; Shori et al., Biochem. Pharmacol., 1992, 43, 1209; Stürzebecher et al., Biol. Chem. Hoppe-Seyler, 1992, 373, 1025). Human KLK1 (Callbiochem) was incubated at 37° C. with the fluorogenic substrate H-DVal-Leu-Arg-AFC and various concentrations of the test compound. Residual enzyme activity (initial rate of reaction) was determined by measuring the change in optical absorbance at 410 nm and the IC50 value for the test compound was determined.

Human plasma kallikrein = Human plasma kallikrein (Homo sapiens (Human), UniProt P03952); test: Determination of the IC50 for Plasma Kallikrein; format: biochemical; conditions: 37° C., fluorogenic substrate H-DPro-Phe-Arg-AFC; read-out: IC50 (human PKal)
Description: Human plasma kallikrein (Protogen) was incubated at 37° C. with the fluorogenic substrate H-DPro-Phe-Arg-AFC and various concentrations of the test compound. Residual enzyme activity (initial rate of reaction) was determined by measuring the change in optical absorbance at 410 nm and the IC50 value for the test compound was determined.

Sequence of Human KLK1 (P06870 25-262): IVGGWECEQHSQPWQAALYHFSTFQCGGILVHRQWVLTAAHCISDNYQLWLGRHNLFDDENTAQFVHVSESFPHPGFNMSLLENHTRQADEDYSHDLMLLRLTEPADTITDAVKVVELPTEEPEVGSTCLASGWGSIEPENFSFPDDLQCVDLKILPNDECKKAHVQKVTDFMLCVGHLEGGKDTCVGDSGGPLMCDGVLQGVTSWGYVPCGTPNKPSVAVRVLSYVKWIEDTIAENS
Sequence of Human plasma kallikrein (P03952 391-638): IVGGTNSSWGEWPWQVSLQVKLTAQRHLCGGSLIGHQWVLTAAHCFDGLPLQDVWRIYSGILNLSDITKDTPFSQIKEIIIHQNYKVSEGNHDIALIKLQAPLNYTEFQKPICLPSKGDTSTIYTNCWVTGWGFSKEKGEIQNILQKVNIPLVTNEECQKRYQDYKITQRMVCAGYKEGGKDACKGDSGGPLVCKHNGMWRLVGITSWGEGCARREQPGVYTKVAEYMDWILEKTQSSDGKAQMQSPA
Sequence of Human plasma kallikrein (P03952 20-390 partner): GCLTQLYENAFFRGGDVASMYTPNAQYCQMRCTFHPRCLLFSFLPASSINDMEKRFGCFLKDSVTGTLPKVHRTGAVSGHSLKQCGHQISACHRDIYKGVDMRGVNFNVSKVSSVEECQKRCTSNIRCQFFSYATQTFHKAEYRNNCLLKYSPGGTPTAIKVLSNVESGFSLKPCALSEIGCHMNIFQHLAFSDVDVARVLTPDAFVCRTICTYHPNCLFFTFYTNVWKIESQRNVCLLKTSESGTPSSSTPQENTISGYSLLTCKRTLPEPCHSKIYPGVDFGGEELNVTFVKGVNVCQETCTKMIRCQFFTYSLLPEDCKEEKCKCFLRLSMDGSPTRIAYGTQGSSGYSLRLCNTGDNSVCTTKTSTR

IC50 (Human KLK1) [µM] | IC50 (Human plasma kallikrein) [µM] | Structure (SMILES)
> 10 | 0.953 | Cc1cc(C(=O)N[C@H](C)c2ccc(CN)cc2)c(C)n1Cc1csc(-c2ccccc2)n1 [Example 42, 2,5-Dimethyl-1-(2-phenyl-thiazol-4-ylmethyl)-1H-pyrrole-3-carboxylic acid [(R)-1-(4-aminomethyl-phenyl)-ethyl]-amide]
> 10 | 0.355 | Cc1cc(C(=O)NCc2ccc(CN)nc2)c(C)n1Cc1csc(-c2cccc(F)c2)n1 [Example 44, 1-[2-(3-Fluoro-phenyl)-thiazol-4-ylmethyl]-2,5-dimethyl-1H-pyrrole-3-carboxylic acid (6-aminomethyl-pyridin-3-ylmethyl)-amide]
4.89 | 1.16 | Cc1cc(CNC(=O)c2cc(C)n(Cc3csc(-c4ccccc4)n3)c2C)ccc1CN [Example 46, 2,5-Dimethyl-1-(2-phenyl-thiazol-4-ylmethyl)-1H-pyrrole-3-carboxylic acid 4-aminomethyl-3-methyl-benzylamide]
> 10 | 0.074 | Cc1cc(C(=O)NCc2ccc(CN)cc2F)c(C)n1Cc1csc(-c2ccccc2)n1 [Example 47, 2,5-Dimethyl-1-(2-phenyl-thiazol-4-ylmethyl)-1H-pyrrole-3-carboxylic acid 4-aminomethyl-2-fluoro-benzylamide]
> 10 | 0.089 | Cc1cc(C(=O)NCc2ccc(CN)cc2Cl)c(C)n1Cc1csc(-c2ccccc2)n1 [Example 49, 2,5-Dimethyl-1-(2-phenyl-thiazol-4-ylmethyl)-1H-pyrrole-3-carboxylic acid 4-aminomethyl-2-chloro-benzylamide]
> 10 | 0.056 | Cc1cc(C(=O)NCc2ccc(CN)cc2C(F)(F)F)c(C)n1Cc1csc(-c2ccccc2)n1 [Example 50, 2,5-Dimethyl-1-(2-phenyl-thiazol-4-ylmethyl)-1H-pyrrole-3-carboxylic acid 4-aminomethyl-2-trifluoromethyl-benzylamide]
> 10 | 0.475 | Cc1cc(C(=O)NC2(c3ccc(CN)cc3)CC2)c(C)n1Cc1csc(-c2ccccc2)n1 [Example 52, 2,5-Dimethyl-1-(2-phenyl-thiazol-4-ylmethyl)-1H-pyrrole-3-carboxylic acid [1-(4-aminomethyl-phenyl)-cyclopropyl]-amide]
5.48 | 3.86 | Cc1cc(C(=O)NCc2ccc(CN)cc2Cl)c(C)n1Cc1ccccc1 [Example 56, 1-Benzyl-2,5-dimethyl-1H-pyrrole-3-carboxylic acid 4-aminomethyl-2-chloro-benzylamide]
> 10 | 7.18 | Cc1cc(C(=O)NCc2ccc(CN)cc2)c(-c2ccccc2)n1Cc1ccccc1 [Example 57, 1-Benzyl-5-methyl-2-phenyl-1H-pyrrole-3-carboxylic acid 4-aminomethyl-benzylamide]
> 10 | 3.12 | Cc1cc(C(=O)NCc2ccc(CN)cc2)c(C)n1Cc1ccc(OCc2ccccc2)cc1 [Example 60, 1-(4-Benzyloxy-benzyl)-2,5-dimethyl-1H-pyrrole-3-carboxylic acid 4-aminomethyl-benzylamide]
4.23 | 5.38 | Cc1cc(C(=O)NCc2ccc(CN)cc2)c(C)n1Cc1cccc(CN)c1 [Example 66, 1-(3-Aminomethyl-benzyl)-2,5-dimethyl-1H-pyrrole-3-carboxylic acid 4-aminomethyl-benzylamide]
6.97 | 3.5 | Cc1cc(C(=O)NCc2ccc(CN)cc2)c(C)n1Cc1ccc(CN)cc1 [Example 67, 1-(4-Aminomethyl-benzyl)-2,5-dimethyl-1H-pyrrole-3-carboxylic acid 4-aminomethyl-benzylamide]
> 10 | 0.702 | Cc1cc(C(=O)NCc2ccc(CN)cc2)c(C)n1Cc1cccc(-c2cccnc2)c1 [Example 71, 2,5-Dimethyl-1-(3-pyridin-3-yl-benzyl)-1H-pyrrole-3-carboxylic acid 4-aminomethyl-benzylamide]
> 10 | 3.02 | Cc1cc(C(=O)NCc2ccc(CN)cc2)c(C)n1Cc1cccc(-c2ccncc2)c1 [Example 72, 2,5-Dimethyl-1-(3-pyridin-4-yl-benzyl)-1H-pyrrole-3-carboxylic acid 4-aminomethyl-benzylamide]

The remaining lines, values behind:

Structure (SMILES) | IC50 (Human KLK1) [µM] | IC50 (Human plasma kallikrein) [µM]
Cc1cc(C(=O)NCc2ccc([C@@H](C)N)cc2)c(C)n1Cc1csc(-c2ccccc2)n1 [Example 48, 2,5-Dimethyl-1-(2-phenyl-thiazol-4-ylmethyl)-1H-pyrrole-3-carboxylic acid 4-((R)-1-amino-ethyl)-benzylamide] | > 10 | 0.624
Cc1cc(C(=O)NCc2ccc([C@H](C)N)cc2)c(C)n1Cc1csc(-c2ccccc2)n1 [Example 51, 2,5-Dimethyl-1-(2-phenyl-thiazol-4-ylmethyl)-1H-pyrrole-3-carboxylic acid-4-((S)-1-amino-ethyl)-benzylamide] | > 10 | 0.341
COc1cc(CNC(=O)c2cc(C)n(Cc3csc(-c4ccccc4)n3)c2C)ccc1CN [Example 53, 2,5-Dimethyl-1-(2-phenyl-thiazol-4-ylmethyl)-1H-pyrrole-3-carboxylic acid 4-aminomethyl-3-methoxy-benzylamide] | > 10 | 0.677
COc1cc(CN)ccc1CNC(=O)c1cc(C)n(Cc2csc(-c3ccccc3)n2)c1C [Example 54, 2,5-Dimethyl-1-(2-phenyl-thiazol-4-ylmethyl)-1H-pyrrole-3-carboxylic acid 4-aminomethyl-2-methoxy-benzylamide] | > 10 | 0.03
CCOc1cccc(Cn2c(C)cc(C(=O)NCc3ccc(CN)cc3)c2C)c1 [Example 58, 1-(3-Ethoxy-benzyl)-2,5-dimethyl-1H-pyrrole-3-carboxylic acid 4-aminomethyl-benzylamide] | > 10 | 4.92
CCOc1ccc(Cn2c(C)cc(C(=O)NCc3ccc(CN)cc3)c2C)cc1 [Example 59, 1-(4-Ethoxy-benzyl)-2,5-dimethyl-1H-pyrrole-3-carboxylic acid 4-aminomethyl-benzylamide] | > 10 | 2.74
COc1ccc(Cn2c(C)cc(C(=O)NCc3ccc(CN)cc3)c2C)cc1 [Example 61, 1-(4-Methoxy-benzyl)-2,5-dimethyl-1H-pyrrole-3-carboxylic acid 4-aminomethyl-benzylamide] | > 10 | 2.99
Cc1cc(C(=O)NCc2ccc(CN)cc2)c(C)n1Cc1cccc(C(N)=O)c1 [Example 62, 1-(3-Carbamoyl-benzyl)-2,5-dimethyl-1H-pyrrole-3-carboxylic acid 4-aminomethyl-benzylamide] | > 10 | 6.03
Cc1cc(C(=O)NCc2ccc(CN)cc2)c(C)n1Cc1ccc(C(N)=O)cc1 [Example 63, 1-(4-Carbamoyl-benzyl)-2,5-dimethyl-1H-pyrrole-3-carboxylic acid 4-aminomethyl-benzylamide] | > 10 | 7.34
Cc1cc(C(=O)NCc2ccc(CN)cc2)c(C)n1Cc1cccc(C#N)c1 [Example 64, 1-(3-Cyano-benzyl)-2,5-dimethyl-1H-pyrrole-3-carboxylic acid 4-aminomethyl-benzylamide] | > 10 | 6.25
Cc1cc(C(=O)NCc2ccc(CN)cc2)c(C)n1Cc1ccc(C#N)cc1 [Example 65, 1-(4-Cyano-benzyl)-2,5-dimethyl-1H-pyrrole-3-carboxylic acid 4-aminomethyl-benzylamide] | > 10 | 4.56
CC(=O)NCc1ccc(Cn2c(C)cc(C(=O)NCc3ccc(CN)cc3)c2C)cc1 [Example 68, 1-[4-(Acetylamino-methyl)-benzyl]-2,5-dimethyl-1H-pyrrole-3-carboxylic acid 4-aminomethyl-benzylamide] | > 10 | 2.09
Cc1cc(C(=O)NCc2ccc(CN)cc2)c(C)n1Cc1cccc(-c2ccccc2)c1 [Example 69, 1-Biphenyl-3-ylmethyl-2,5-dimethyl-1H-pyrrole-3-carboxylic acid 4-aminomethyl-benzylamide] | > 10 | 0.689
Cc1cc(C(=O)NCc2ccc(CN)cc2)c(C)n1Cc1ccc(-c2ccccc2)cc1 [Example 70, 1-Biphenyl-4-ylmethyl-2,5-dimethyl-1H-pyrrole-3-carboxylic acid 4-aminomethyl-benzylamide] | > 10 | 4.59
Cc1cc(C(=O)NCc2ccc(CN)cc2)c(C)n1Cc1cccc(N2CCOCC2)c1 [Example 73, 2,5-Dimethyl-1-(3-morpholin-4-yl-benzyl)-1H-pyrrole-3-carboxylic acid 4-aminomethyl-benzylamide] | > 10 | 7.58
Cc1cc(C(=O)NCc2ccc(CN)cc2)c(C)n1Cc1cccc(N2CCCCC2)c1 [Example 74, 2,5-Dimethyl-1-(3-piperidin-1-yl-benzyl)-1H-pyrrole-3-carboxylic acid 4-aminomethyl-benzylamide] | > 10 | 1.58
Cc1cc(C(=O)NCc2ccc(CN)cc2)n(C)c1Cc1ccccc1 [Example 75, 5-Benzyl-1,4-dimethyl-1H-pyrrole-2-carboxylic acid 4-aminomethyl-benzylamide] | > 10 | 4.5
Cc1cc(C(=O)NCc2ccc(CN)cc2)[nH]c1Cc1ccccc1 [Example 76, 5-Benzyl-4-methyl-1H-pyrrole-2-carboxylic acid 4-aminomethyl-benzylamide] | > 10 | 8.77
